Laboratory results reported in patent US9695155B2, “Herbicidal substituted pyrimidinyloxy benzene compounds” (E. I. DU PONT DE NEMOURS AND COMPANY, priority 2013, dated 2017).

What was measured:
barnyardgrass [1] = assay: Test C preemergence; format: in vivo, Echinochloa crus-galli; conditions: Echinochloa crus-galli, pre-emergence
Summary of the method: (§1)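 Greenhouse herbicide screen. Pre: seeded loam/sand, sprayed at planting. Post: 1–4 leaf plants (2–18 cm) in peat-based mix. Formulation: solvent mixture + surfactant, non-phytotoxic. Readout: visual % control vs untreated, 13–15 d; dash = not tested.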

chickweed = assay: Test C postemergence; format: in vivo, Stellaria media; conditions: Stellaria media, post-emergence
Summary of the method: as §1

oilseed rape = assay: Test C preemergence; format: in vivo, Brassica napus; conditions: Brassica napus, pre-emergence
Summary of the method: as §1

galium [2] = assay: Test C preemergence; format: in vivo, Galium aparine; conditions: Galium, pre-emergence
Summary of the method: as §1

johnsongrass = assay: Test C postemergence; format: in vivo, Sorghum halepense; conditions: Sorghum halepense, post-emergence
Summary of the method: as §1

waterhemp = assay: Test C preemergence; format: in vivo, Amaranthus rudis; conditions: Amaranthus tuberculatus, pre-emergence
Summary of the method: as §1

soybean [3] = assay: Test C preemergence; format: in vivo, Glycine max; conditions: Glycine max, pre-emergence
Summary of the method: as §1

morningglory = assay: Test C preemergence; format: in vivo, Ipomoea coccinea; conditions: Ipomoea, pre-emergence
Summary of the method: as §1

galium [4] = assay: Test C postemergence; format: in vivo, Galium aparine; conditions: Galium, post-emergence
Summary of the method: as §1

barnyardgrass [5] = assay: Test B flooded paddy test; format: in vivo, Echinochloa crus-galli; conditions: Echinochloa crus-galli; Flood, 250 g ai/ha; 0 to 100 scale where 0 is no effect and 100 is complete control; read-out: Plant response rating, Barnyardgrass
Summary of the method: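 Visual ratings on a 0 to 100 scale, where 100 means complete control, compared treated plants with controls after 13 to 15 days in a greenhouse. Treatment went into paddy water 3 cm deep over the soil, applied to plants at the 2-leaf stage.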

giant foxtail = assay: Test A preemergence; format: in vivo, Setaria faberii; conditions: Setaria faberi, pre-emergence, 240 h
Summary of the method: (§2)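 Visual 0–100 rating (100 = complete control) taken about 10 d post-treatment relative to untreated checks. Preemergence: directed soil spray on sown loam/sand pots. Postemergence: seedlings 2–10 cm, 1–2 leaf. Non-phytotoxic solvent formulation with surfactant.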

pigweed = assay: Test A postemergence; format: in vivo, Amaranthus retroflexus; conditions: Amaranthus retroflexus, post-emergence
Summary of the method: as §2

soybean [6] = assay: Test C postemergence; format: in vivo, Glycine max; conditions: Glycine max, post-emergence
Summary of the method: as §1

velvetleaf = assay: Test C postemergence; format: in vivo, Abutilon theophrasti; conditions: Abutilon theophrasti, post-emergence
Summary of the method: as §1

barnyardgrass [7] = assay: Test A postemergence; format: in vivo, Echinochloa crus-galli; conditions: Echinochloa crus-galli, post-emergence, 240 h
Summary of the method: as §2

Work on N#Cc1cccc(Oc2ncc(Cl)cn2)c1-n1cc(C(F)(F)F)cn1 [Compound 58, 3-[(5-chloro-2-pyrimidinyl)oxy]-2-[4-(trifluoromethyl)-1H-pyrazol-1-yl]benzonitrile] yielded a pest or weed control at 62 g/ha (barnyardgrass [1]; 62 g ai/ha, preemergence, scale 0 (no effect) to 100 (complete control), read-out: Barnyardgrass plant response rating) of 100%, a pest or weed control at 125 g/ha (barnyardgrass [1]; 125 g ai/ha, preemergence, scale 0 (no effect) to 100 (complete control), read-out: Barnyardgrass plant response rating) of 100% and a pest or weed control at 250 g/ha (barnyardgrass [1]; 250 g ai/ha, preemergence, scale 0 (no effect) to 100 (complete control), read-out: Barnyardgrass plant response rating) of 100%. It also gave a pest or weed control at 31 g/ha (barnyardgrass [1]; Preemergence, 31 g ai/ha, scale 0 to 100, 0 no effect, 100 complete control, read-out: Plant response rating, Barnyardgrass) of 98%, a pest or weed control at 125 g/ha (chickweed; 125 g ai/ha, postemergence, read-out: Plant response rating (0 to 100), Chickweed) of 100% and a pest or weed control at 250 g/ha (chickweed; 250 g ai/ha, postemergence, read-out: Plant response rating (0 to 100), Chickweed) of 100%. It also gave a pest or weed control at 31 g/ha (chickweed; Postemergence, 31 g ai/ha, scale 0 to 100 (0 no effect, 100 complete control), 13 to 15 days, read-out: Plant response rating, Chickweed) of 95%, a pest or weed control at 62 g/ha (chickweed; Postemergence, 62 g ai/ha, scale 0 to 100 (0 no effect, 100 complete control), read-out: Plant response rating, Chickweed) of 95% and a plant injury at 62 g/ha (oilseed rape; 62 g ai/ha, preemergence, scale 0 (no effect) to 100 (complete control), read-out: Oilseed Rape plant response rating) of 100%. The plant injury at 125 g/ha (oilseed rape; 125 g ai/ha, preemergence, scale 0 (no effect) to 100 (complete control), read-out: Oilseed Rape plant response rating) was 100%, the plant injury at 250 g/ha (oilseed rape; 250 g ai/ha, preemergence, scale 0 (no effect) to 100 (complete control), read-out: Oilseed Rape plant response rating) was 100% and the plant injury at 31 g/ha (oilseed rape; Preemergence, 31 g ai/ha, scale 0 to 100, 0 no effect, 100 complete control, read-out: Plant response rating, Oilseed Rape) was 100%. The pest or weed control at 62 g/ha (galium [2]; 62 g ai/ha, preemergence, scale 0 (no effect) to 100 (complete control), read-out: Galium plant response rating) was 100%, the pest or weed control at 125 g/ha (galium [2]; 125 g ai/ha, preemergence, scale 0 (no effect) to 100 (complete control), read-out: Galium plant response rating) was 100% and the pest or weed control at 250 g/ha (galium [2]; 250 g ai/ha, preemergence, scale 0 (no effect) to 100 (complete control), read-out: Galium plant response rating) was 100%. For the same compound, the pest or weed control at 31 g/ha (galium [2]; Preemergence, 31 g ai/ha, scale 0 to 100, 0 no effect, 100 complete control, read-out: Plant response rating, Galium) was 100%, the pest or weed control at 125 g/ha (johnsongrass; 125 g ai/ha, postemergence, read-out: Plant response rating (0 to 100), Johnsongrass) was 35% and the pest or weed control at 250 g/ha (johnsongrass; 250 g ai/ha, postemergence, read-out: Plant response rating (0 to 100), Johnsongrass) was 85%. It also gave a pest or weed control at 31 g/ha (johnsongrass; Postemergence, 31 g ai/ha, scale 0 to 100 (0 no effect, 100 complete control), 13 to 15 days, read-out: Plant response rating, Johnsongrass) of 15%, a pest or weed control at 62 g/ha (johnsongrass; Postemergence, 62 g ai/ha, scale 0 to 100 (0 no effect, 100 complete control), read-out: Plant response rating, Johnsongrass) of 15% and a pest or weed control at 62 g/ha (waterhemp; 62 g ai/ha, preemergence, scale 0 (no effect) to 100 (complete control), read-out: Waterhemp plant response rating) of 100%. It also gave a pest or weed control at 125 g/ha (waterhemp; 125 g ai/ha, preemergence, scale 0 (no effect) to 100 (complete control), read-out: Waterhemp plant response rating) of 100%, a pest or weed control at 250 g/ha (waterhemp; 250 g ai/ha, preemergence, scale 0 (no effect) to 100 (complete control), read-out: Waterhemp plant response rating) of 100% and a pest or weed control at 31 g/ha (waterhemp; Preemergence, 31 g ai/ha, scale 0 to 100, 0 no effect, 100 complete control, read-out: Plant response rating, Waterhemp) of 100%. It also gave a plant injury at 62 g/ha (soybean [3]; 62 g ai/ha, preemergence, scale 0 (no effect) to 100 (complete control), read-out: Soybean plant response rating) of 95%, a plant injury at 125 g/ha (soybean [3]; 125 g ai/ha, preemergence, scale 0 (no effect) to 100 (complete control), read-out: Soybean plant response rating) of 98% and a plant injury at 250 g/ha (soybean [3]; 250 g ai/ha, preemergence, scale 0 (no effect) to 100 (complete control), read-out: Soybean plant response rating) of 98%. The plant injury at 31 g/ha (soybean [3]; Preemergence, 31 g ai/ha, scale 0 to 100, 0 no effect, 100 complete control, read-out: Plant response rating, Soybean) was 90%, the pest or weed control at 62 g/ha (morningglory; 62 g ai/ha, preemergence, scale 0 (no effect) to 100 (complete control), read-out: Morningglory plant response rating) was 100% and the pest or weed control at 125 g/ha (morningglory; 125 g ai/ha, preemergence, scale 0 (no effect) to 100 (complete control), read-out: Morningglory plant response rating) was 100%. It also gave a pest or weed control at 250 g/ha (morningglory; 250 g ai/ha, preemergence, scale 0 (no effect) to 100 (complete control), read-out: Morningglory plant response rating) of 100%, a pest or weed control at 31 g/ha (morningglory; Preemergence, 31 g ai/ha, scale 0 to 100, 0 no effect, 100 complete control, read-out: Plant response rating, Morningglory) of 100% and a pest or weed control at 125 g/ha (galium [4]; 125 g ai/ha, postemergence, read-out: Plant response rating (0 to 100), Galium) of 85%. It also gave a pest or weed control at 250 g/ha (galium [4]; 250 g ai/ha, postemergence, read-out: Plant response rating (0 to 100), Galium) of 95%, a pest or weed control at 31 g/ha (galium [4]; Postemergence, 31 g ai/ha, scale 0 to 100 (0 no effect, 100 complete control), 13 to 15 days, read-out: Plant response rating, Galium) of 60% and a pest or weed control at 62 g/ha (galium [4]; Postemergence, 62 g ai/ha, scale 0 to 100 (0 no effect, 100 complete control), read-out: Plant response rating, Galium) of 70%. It also gave a pest or weed control at 250 g/ha (barnyardgrass [5]) of 80%, a pest or weed control at 125 g/ha (giant foxtail; 125 g ai/ha, 0 to 100 scale where 0 is no effect and 100 is complete control, read-out: Plant response rating, Foxtail, Giant) of 100% and a pest or weed control at 500 g/ha (giant foxtail; 500 g ai/ha, 0 to 100 scale, 0 no effect, 100 complete control, approx. 10 days, read-out: Foxtail, Giant plant response rating) of 100%. The pest or weed control at 125 g/ha (pigweed; 125 g ai/ha, 0 to 100 scale where 0 is no effect and 100 is complete control, read-out: Plant response rating, Pigweed) was 100%, the pest or weed control at 500 g/ha (pigweed; 240 h, 500 g ai/ha, 0 to 100 scale, 0 no effect, 100 complete control, read-out: Plant response rating Pigweed) was 100% and the Soybean plant response rating (crop injury, 0-100 scale) at 125 g/ha (soybean [6]; 125 g ai/ha, postemergence, read-out: Plant response rating (0 to 100), Soybean) was 98%. The Soybean plant response rating (crop injury, 0-100 scale) at 250 g/ha (soybean [6]; 250 g ai/ha, postemergence) was 98%, the Soybean plant response rating (crop injury, 0-100 scale) at 31 g/ha (soybean [6]; Postemergence, 31 g ai/ha, scale 0 to 100 (0 no effect, 100 complete control), 13 to 15 days) was 95% and the Soybean plant response rating (crop injury, 0-100 scale) at 62 g/ha (soybean [6]; Postemergence, 62 g ai/ha, scale 0 to 100 (0 no effect, 100 complete control)) was 95%. It also gave a pest or weed control at 125 g/ha (velvetleaf; 125 g ai/ha, postemergence, read-out: Plant response rating (0 to 100), Velvetleaf) of 60%, a pest or weed control at 250 g/ha (velvetleaf; 250 g ai/ha, postemergence, read-out: Plant response rating (0 to 100), Velvetleaf) of 85% and a pest or weed control at 31 g/ha (velvetleaf; Postemergence, 31 g ai/ha, scale 0 to 100 (0 no effect, 100 complete control), 13 to 15 days, read-out: Plant response rating, Velvetleaf) of 45%. For the same compound, the pest or weed control at 62 g/ha (velvetleaf; Postemergence, 62 g ai/ha, scale 0 to 100 (0 no effect, 100 complete control), read-out: Plant response rating, Velvetleaf) was 50%, the pest or weed control at 125 g/ha (barnyardgrass [7]; 125 g ai/ha, 0 to 100 scale where 0 is no effect and 100 is complete control, read-out: Plant response rating, Barnyardgrass) was 100% and the pest or weed control at 500 g/ha (barnyardgrass [7]; 500 g ai/ha, 0 to 100 scale, 0 no effect, 100 complete control, read-out: Plant response rating Barnyardgrass) was 100%.
